Laboratory results reported in patent publication US20210085640A1, “ACYLATED CATECHIN POLYPHENOLS AND METHODS OF THEIR USE FOR THE TREATMENT OF CANCER” (Flagship Pioneering Innovations V, Inc., priority 2018, published 2021).

Assays:
Type in all cases: cell-based
T24 bladder cancer cells = assay: Cancer cell survival (CellTiter-Glo), T24; conditions: Homo sapiens
Summary of the method: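 Viability by CellTiter-Glo after 72 h compound treatment of T24 bladder cancer cells (4×10^3/well, plated the night before), nine concentration levels in triplicate. Percent survival normalised to untreated cells minus medium background, from which IC50 was determined.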

[1] = test system: Daudi lymphoma cancer cells; assay: Cancer cell survival (CellTiter-Glo), Daudi; conditions: Homo sapiens, 72 h
Summary of the method: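 Daudi cells (4×10^3/well) were exposed for 72 h at 37 °C to nine concentrations of compound, added as 10× solutions spanning 1 μM–10 mM (fatty acids) or 100 nM–1 mM (others). CellTiter-Glo luminescence gave % survival versus untreated, medium-blank corrected; IC50 derived.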

MCF7 breast cancer cells = assay: Cancer cell survival (CellTiter-Glo), MCF7; conditions: Homo sapiens, 72 h
Summary of the method: (§1)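 CellTiter-Glo luminescence after 72 h compound exposure (37 C, 5% CO2; nine concentration levels, triplicate) of overnight-plated cells at 4×10^3 per well. IC50 calculated from survival % relative to untreated cells after medium-background subtraction.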

[2] = test system: HCT 116 colorectal cancer cells; assay: Cancer cell survival (CellTiter-Glo), HCT 116; conditions: Homo sapiens, HCT 116 cells, 72 h
Summary of the method: as §1

A549 lung cancer cells = assay: Cancer cell survival (CellTiter-Glo), A549; conditions: Homo sapiens, 72 h
Summary of the method: as §1

[3] = test system: PC-3 prostate cancer cells; assay: Cancer cell survival (CellTiter-Glo), PC-3; conditions: Homo sapiens, PC-3 cells, 72 h
Summary of the method: as §1

A-431 skin cancer cells = assay: Cancer cell survival (CellTiter-Glo), A-431; conditions: Homo sapiens, A-431 cells, 72 h
Summary of the method: as §1

AGS stomach cancer cells = assay: Cancer cell survival (CellTiter-Glo), AGS
Summary of the method: as §1

[4] = 101 nM, read-out: Cell survival at given concentration
[5] = 318 nM, read-out: Cell survival at given concentration
[6] = 1 μM, read-out: Cell survival at given concentration
[7] = 3 μM, read-out: Cell survival at given concentration
[8] = 10 μM, read-out: Cell survival at given concentration
[9] = 32 μM, read-out: Cell survival at given concentration
[10] = 100 μM, read-out: Cell survival at given concentration
[11] = 316 μM, read-out: Cell survival at given concentration
[12] = 1000 μM, read-out: Cell survival at given concentration

Oc1cc(O)c2c(c1)O[C@H](c1cc(O)c(O)c(O)c1)[C@H](O)C2 [EGC, epigallocatechin]
viability at 0.101 µM (T24 bladder cancer cells; T-24, 101 nM, 72 h, read-out: Cell survival at given concentration): 99% | viability at 0.318 µM (T24 bladder cancer cells; T-24, 318 nM, 72 h, read-out: Cell survival at given concentration): 103% | viability at 1 µM (T24 bladder cancer cells; T-24, 1 μM, 72 h, read-out: Cell survival at given concentration): 103% | viability at 3 µM (T24 bladder cancer cells; T-24, 3 μM, 72 h, read-out: Cell survival at given concentration): 101% | viability at 10 µM (T24 bladder cancer cells; T-24, 10 μM, 72 h, read-out: Cell survival at given concentration): 100% | viability at 32 µM (T24 bladder cancer cells; T-24, 32 μM, 72 h, read-out: Cell survival at given concentration): 84% | viability at 100 µM (T24 bladder cancer cells; T-24, 100 μM, 72 h, read-out: Cell survival at given concentration): 0% | viability at 316 µM (T24 bladder cancer cells; T-24, 316 μM, 72 h, read-out: Cell survival at given concentration): 0% | viability at 1000 µM (T24 bladder cancer cells; T-24, 1000 μM, 72 h, read-out: Cell survival at given concentration): 0% | IC50 (T24 bladder cancer cells; T-24, 72 h, Table 3.1, read-out: 1050): 40 µM | viability at 0.101 µM [1, 4]: 100% | viability at 0.318 µM [1, 5]: 101% | viability at 1 µM [1, 6]: 101% | viability at 3 µM [1, 7]: 103% | viability at 10 µM [1, 8]: 102% | viability at 32 µM [1, 9]: 99% | viability at 100 µM [1, 10]: 0% | viability at 316 µM [1, 11]: 0% | viability at 1000 µM [1, 12]: 0% | IC50 ([1]; Table 4.1): 47.5 µM | viability at 0.101 µM (MCF7 breast cancer cells; [4]): 93% | viability at 0.318 µM (MCF7 breast cancer cells; [5]): 97% | viability at 1 µM (MCF7 breast cancer cells; [6]): 97% | viability at 3 µM (MCF7 breast cancer cells; [7]): 102% | viability at 10 µM (MCF7 breast cancer cells; [8]): 92% | viability at 32 µM (MCF7 breast cancer cells; [9]): 100% | viability at 100 µM (MCF7 breast cancer cells; [10]): 90% | viability at 316 µM (MCF7 breast cancer cells; [11]): 56% | viability at 1000 µM (MCF7 breast cancer cells; [12]): 2% | IC50 (MCF7 breast cancer cells; Table 5.1): 355 µM | viability at 0.101 µM [2, 4]: 99% | viability at 0.318 µM [2, 5]: 98% | viability at 1 µM [2, 6]: 100% | viability at 3 µM [2, 7]: 101% | viability at 10 µM [2, 8]: 99% | viability at 32 µM [2, 9]: 97% | viability at 100 µM [2, 10]: 1% | viability at 316 µM [2, 11]: 0% | viability at 1000 µM [2, 12]: 0% | IC50 ([2]; Table 6.1): 50.3 µM | viability at 0.101 µM (A549 lung cancer cells; [4]): 98% | viability at 0.318 µM (A549 lung cancer cells; [5]): 100% | viability at 1 µM (A549 lung cancer cells; [6]): 100% | viability at 3 µM (A549 lung cancer cells; [7]): 100% | viability at 10 µM (A549 lung cancer cells; [8]): 94% | viability at 32 µM (A549 lung cancer cells; [9]): 96% | viability at 100 µM (A549 lung cancer cells; [10]): 94% | viability at 316 µM (A549 lung cancer cells; [11]): 81% | viability at 1000 µM (A549 lung cancer cells; [12]): 9% | IC50 (A549 lung cancer cells; Table 7.1): 640 µM | viability at 0.101 µM [3, 4]: 103% | viability at 0.318 µM [3, 5]: 99% | viability at 1 µM [3, 6]: 100% | viability at 3 µM [3, 7]: 101% | viability at 10 µM [3, 8]: 102% | viability at 32 µM [3, 9]: 98% | viability at 100 µM [3, 10]: 96% | viability at 316 µM [3, 11]: 96% | viability at 1000 µM [3, 12]: 36% | IC50 ([3]; Table 8.1): 899 µM | viability at 0.101 µM (A-431 skin cancer cells; [4]): 103% | viability at 0.318 µM (A-431 skin cancer cells; [5]): 103% | viability at 1 µM (A-431 skin cancer cells; [6]): 102% | viability at 3 µM (A-431 skin cancer cells; [7]): 102% | viability at 10 µM (A-431 skin cancer cells; [8]): 98% | viability at 32 µM (A-431 skin cancer cells; [9]): 96% | viability at 100 µM (A-431 skin cancer cells; [10]): 95% | viability at 316 µM (A-431 skin cancer cells; [11]): 60% | viability at 1000 µM (A-431 skin cancer cells; [12]): 0% | IC50 (A-431 skin cancer cells; Table 9.1): 385 µM | viability at 0.101 µM (AGS stomach cancer cells; 72 h, 101 nM, read-out: Cell survival at given concentration): 103% | viability at 0.318 µM (AGS stomach cancer cells; 72 h, 318 nM, read-out: Cell survival at given concentration): 103% | viability at 1 µM (AGS stomach cancer cells; 72 h, 1 μM, Table 10.1, read-out: Cell survival at given concentration): 108% | viability at 3 µM (AGS stomach cancer cells; 72 h, 3 μM, Table 10.1, read-out: Cell survival at given concentration): 105% | viability at 10 µM (AGS stomach cancer cells; 72 h, 10 μM, Table 10.1, read-out: Cell survival at given concentration): 104% | viability at 32 µM (AGS stomach cancer cells; 72 h, 32 μM, Table 10.1, read-out: Cell survival at given concentration): 104% | viability at 100 µM (AGS stomach cancer cells; 72 h, 100 μM, Table 10.1, read-out: Cell survival at given concentration): 107% | viability at 316 µM (AGS stomach cancer cells; 72 h, 316 μM, read-out: Cell survival at given concentration): 80% | viability at 1000 µM (AGS stomach cancer cells; 72 h, 1000 μM, read-out: Cell survival at given concentration): 8% | IC50 (AGS stomach cancer cells; Table 10.1): 477 µM
